Results from patent US12466831B2, “Substituted amino triazolopyrimidine and amino triazolopyrazine adenosine receptor antagonists, pharmaceutical compositions and their use” (Merck Sharp & Dohme LLC, priority 2018, dated 2025).

Assays:
[1] = target: T1, human A2a adenosine receptor (Homo sapiens, UniProt P29274); assay: A2a binding affinity using radioligand binding, Method (A); conditions: Method (A): [3H]SCH58261 filtration binding, membranes expressing human A2a
T1 construct: purchased Perkin Elmer RBHA2aM400UA; host or cells: HEK293 or CHO cells (recombinant expression)
From the text: (§1) Method (A) describes the procedure used to measure A2a binding affinity using radioligand binding. Method (B) describes the procedure used to measure A2a binding affinity using SPA technology. The method used to measure A2b binding affinity is also described below. The method used to determine the A2a IC50 value reported for each compound in the table is indicated next to the reported value. The A2b IC50 value measured using the A2b binding affinity assay is shown in the table next to the compound under the corresponding A2a value.
The A2a receptor affinity binding assay measured the amount of binding of a tritiated ligand with high affinity for the A2a adenosine receptor to membranes made from HEK293 or CHO cells recombinantly expressing the human A2a adenosine receptor, in the presence of varying concentrations of a compound of the invention. The data were generated using either filtration binding or a homogenous scintillation proximity assay (SPA).
Method (A): Measurement of A2a Binding Affinity Using Radioligand Binding
148 μL (5 μg/mL) membranes (Perkin Elmer, Cat. No. RBHA2aM400UA) and 2 μL compounds of the invention to be tested (test compound) were transferred to individual wells of a 96-well polypropylene assay plate and incubated for 15 to 30 minutes at room temperature. [^3H] SCH58261 ((7-(2-phenylethyl)-5-amino-2-(2-furyl)-pyrazolo-[4,3-e]-1,2,4-triazolo[1,5-c]pyrimidine)) was diluted in assay buffer (50 mM Tris pH 7.4, 10 mM MgCl2, 0.005% Tween20) to a concentration of 4 nM and 50 μL transferred to each well of the assay plate. To define total and non-specific binding, wells containing 1% DMSO and 1 μM ZM241385 (Tocris Bioscience, Cat. No. 1036) respectively, were also included. The assay plate was incubated at room temperature for 60 minutes with agitation. Using a FilterMate Harvester® (Perkin Elmer), the contents of the assay plate were filtered through a UniFilter-96® PEI coated plate (Perkin Elmer Cat. No. 6005274 or 6005277). Filtering was achieved by aspirating the contents of the assay plate for 5 seconds, then washing and aspirating the contents three times with ice-cooled wash buffer (50 mM Tris-HCl pH 7.4, 150 mM NaCl) and allowing the vacuum manifold to dry the plate for 30 seconds. The filter plate was incubated for at least 1 hour at 55° C. and allowed to dry. The bottom of the filter plate was sealed with backing tape. 40 μL Ultima Gold™ (Perkin Elmer, Cat. No. 6013329) was added to each well of the filter plate and the top of the plate was sealed with TopSeal-A PLUS® clear plate seal (Perkin Elmer, Cat. No. 6050185). The plate was incubated for at least 20 minutes, and then the amount of radioactivity remaining in each well was determined using a TopCount® (Perkin Elmer) scintillation counter. After normalization to total and non-specific binding, the percent effect at each compound concentration was calculated. The plot of percent effect versus the log of compound concentration was analyzed electronically using a 4-parameter logistic fit based on the Levenberg-Marquardt algorithm to generate IC50 values.

[2] = target: T2, human A2b adenosine receptor (Homo sapiens, UniProt P29275); assay: A2b binding affinity, radioligand filtration binding assay; conditions: tritiated proprietary A2b antagonist, HEK293 membranes expressing human A2b
T2 construct: purchased Perkin Elmer ES-013-C; host or cells: HEK293 cells recombinantly expressing the receptor; membranes made from them
T2 sequence (P29275 1-332): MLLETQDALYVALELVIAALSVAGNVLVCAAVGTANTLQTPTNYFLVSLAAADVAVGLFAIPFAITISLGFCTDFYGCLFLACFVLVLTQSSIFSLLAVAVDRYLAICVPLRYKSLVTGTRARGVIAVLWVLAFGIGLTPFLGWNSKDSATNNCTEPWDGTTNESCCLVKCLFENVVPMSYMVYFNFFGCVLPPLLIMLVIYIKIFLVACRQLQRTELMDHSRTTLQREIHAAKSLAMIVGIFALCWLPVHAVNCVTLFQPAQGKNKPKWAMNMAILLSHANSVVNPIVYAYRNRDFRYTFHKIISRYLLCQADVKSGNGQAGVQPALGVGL
From the text: as §1
Measurement of A2b Binding Affinity
The reported affinity of the compounds of the invention for the human A2b adenosine receptor was determined experimentally using a radioligand filtration binding assay. This assay measures the amount of binding of a tritiated proprietary A2b receptor antagonist, in the presence and absence of a compound of the invention, to membranes made from HEK293 cells recombinantly expressing the human A2b adenosine receptor (Perkin Elmer, Cat. No. ES-013-C).
148 μL (135 μg/mL) membranes and 2 μL test compounds were transferred to individual wells of a 96-well polypropylene assay plate and incubated for 15 to 30 minutes at room temperature with agitation. Tritiated radioligand was diluted to a concentration of 14 nM in assay buffer (phosphate buffered saline without Magnesium and Calcium, pH 7.4; GE Healthcare Life Sciences, Cat. No. SH30256.01) and then 50 μL of the solution were transferred to each well of the assay plate. To define total and non-specific binding, wells containing 1% DMSO and 20 μM N-ethylcarboxamidoadenosine (Tocris Bioscience, Cat. No. 1691) respectively, were also included. The wells of the assay plate were incubated at room temperature for 60 minutes with agitation, then filtered using a FilterMate Harvester® (Perkin Elmer) or similar equipment through a UniFilter-96® PEI coated plate (Perkin Elmer Cat. No. 6005274 or 6005277). Filtering was achieved by aspirating the contents of the assay plate for 5 seconds, then washing and aspirating the contents three times with ice-cooled wash buffer (assay buffer supplemented with 0.0025% Brij58) and allowing the vacuum manifold to dry the plate for 30 seconds. The filter plate was incubated for at least 1 hour at 55° C. and allowed to dry. The bottom of the filter plate was then sealed with backing tape. 40 μL Ultima Gold™ (Perkin Elmer, Cat. No. 6013329) was added to each well of the filter plate and the top of the plate was sealed with TopSeal-A PLUS® clear plate seal (Perkin Elmer, Cat. No. 6050185). The plates were then incubated for at least 20 minutes, and then the amount of radioactivity remaining in each well was determined using a TopCount® (Perkin Elmer) scintillation counter. After normalization to total and non-specific binding, the percent effect at each compound concentration was calculated. The plot of percent effect versus the log of compound concentration was analyzed electronically using a 4-parameter logistic fit based on the Levenberg-Marquardt algorithm to generate IC50 values.

T1 sequence (P29274 whole entry): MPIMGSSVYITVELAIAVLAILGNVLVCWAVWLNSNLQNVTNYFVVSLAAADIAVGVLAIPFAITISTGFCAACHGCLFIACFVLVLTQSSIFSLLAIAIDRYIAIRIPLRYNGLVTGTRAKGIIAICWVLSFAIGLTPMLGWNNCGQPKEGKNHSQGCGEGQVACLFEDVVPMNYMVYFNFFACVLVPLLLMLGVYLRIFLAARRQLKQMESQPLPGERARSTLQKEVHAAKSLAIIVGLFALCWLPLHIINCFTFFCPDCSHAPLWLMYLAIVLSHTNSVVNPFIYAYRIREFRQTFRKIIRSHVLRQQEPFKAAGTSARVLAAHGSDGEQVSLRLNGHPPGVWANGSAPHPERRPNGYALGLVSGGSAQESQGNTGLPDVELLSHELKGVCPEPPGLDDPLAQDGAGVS

Row | SMILES | IC50 [1] | IC50 [2]
1 | Cc1c(-c2cccc(F)c2)nc(Br)c2nc([C@H]3C[C@@H]3C(C)(C)O)nn12 (mixture of isomers) [Example 1.2, 2-((1S,2S and 1R,2R)-2-(8-bromo-6-(3-fluorophenyl)-5-methyl-[1,2,4]triazolo[1,5-a]pyrazin-2-yl)cyclopropyl)propan-2-ol] | 0.0233 µM | 0.202 µM
2 | Cc1c(-c2ncco2)nc(N)c2nc([C@@H]3CCCN(c4cnn(C)c4)C3)nn12 (single isomer, unassigned) [Example 2.5-1] | 0.0148 µM | 0.77 µM
3 | Cc1c(-c2ncco2)nc(N)c2nc([C@H]3CCCN(c4cnn(C)c4)C3)nn12 (single isomer, unassigned) [Example 2.5-2] | 0.0373 µM | 7.39 µM
4 | Cc1c(-c2ncco2)nc(N)n2nc([C@@H]3CCCN(c4cnn(C(C)C(C)(C)O)c4)C3)nc12 (single isomer, unassigned) [Example 2.11, (S or R)-3-(4-((R)-3-(5-amino-8-methyl-7-(oxazol-2-yl)-[1,2,4]triazolo[1,5-c]pyrimidin-2-yl)piperidin-1-yl)-1H-pyrazol-1-yl)-2-methylbutan-2-ol] | 0.0032 µM | 0.0816 µM
5 | Cc1c(-c2ncco2)nc(N)n2nc(C3CCN(c4cnn(CC(C)(C)O)c4)C3)nc12 (single isomer, unassigned) [Example 3.15-1, (R or S)-1-(4-(3-(5-amino-8-methyl-7-(oxazol-2-yl)-[1,2,4]triazolo[1,5-c]pyrimidin-2-yl)pyrrolidin-1-yl)-1H-pyrazol-1-yl)-2-methylpropan-2-ol] | 0.0426 µM | 0.386 µM
6 | Cc1c(-c2ncco2)nc(N)n2nc(C3CCCC(C)(O)C3)nc12 (single isomer, unassigned) [Example 8.2-1, (1-R or S,3-R or S)-3-(5-amino-8-methyl-7-(oxazol-2-yl)-[1,2,4]triazolo[1,5-c]pyrimidin-2-yl)-1-methylcyclohexan-1-ol] | 0.0306 µM | 5.55 µM
7 | Cc1c(-c2ncco2)nc(N)n2nc([C@H]3C[C@H](c4ccc(C(C)(C)O)cn4)C3)nc12 [Example 2.19, 2-(6-((1,3-trans)-3-(5-amino-8-methyl-7-(oxazol-2-yl)-[1,2,4]triazolo[1,5-c]pyrimidin-2-yl)cyclobutyl)pyridin-3-yl)propan-2-ol] | 0.0052 µM | –
8 | Nc1nc(-c2ccccc2)cc2nc([C@@H]3CC(F)(F)CN3C(=O)C3CC3)nn12 [Example 4.3, (S)-(2-(5-amino-7-phenyl-[1,2,4]triazolo[1,5-c]pyrimidin-2-yl)-4,4-difluoropyrrolidin-1-yl)(cyclopropyl)methanone] | 0.0149 µM | –
9 | Cc1c(-c2ncco2)nc(N)n2nc([C@H]3C[C@H](c4ccc(C(C)(C)N)nc4)C3)nc12 [Example 10.6, 2-((1,3-trans)-3-(6-(2-aminopropan-2-yl)pyridin-3-yl)cyclobutyl)-8-methyl-7-(oxazol-2-yl)-[1,2,4]triazolo[1,5-c]pyrimidin-5-amine] | 0.0157 µM | –

Continued by falling IC50 [1], values first:

Row | IC50 [1] | IC50 [2] | SMILES
10 | 0.435 µM | 9.09 µM | Cc1c(-c2ncco2)nc(N)n2nc(C3CCN(c4cnn(CC(C)(C)O)c4)C3)nc12 (single isomer, unassigned) [Example 3.15-2, (R or S)-1-(4-(3-(5-amino-8-methyl-7-(oxazol-2-yl)-[1,2,4]triazolo[1,5-c]pyrimidin-2-yl)pyrrolidin-1-yl)-1H-pyrazol-1-yl)-2-methylpropan-2-ol]
11 | 0.218 µM | 0.436 µM | Cc1c(-c2cc(F)ccc2F)nc(N)c2nc([C@@H]3CCCN(c4cnn(C)c4)C3)nn12 (single isomer, unassigned) [Example 2.6]
12 | 0.143 µM | – | Nc1nc(-c2ncco2)cc2nc([C@@H]3CC(F)(F)CN3)nn12 [Example 2.2, (S)-2-(4,4-difluoropyrrolidin-2-yl)-7-(oxazol-2-yl)-[1,2,4]triazolo[1,5-c]pyrimidin-5-amine]
13 | 0.0323 µM | 0.618 µM | Cc1c(-c2ncco2)nc(N)n2nc(C3CCN(CC(F)(F)F)C3)nc12 (racemic) [Example 9.1, (R and S)-8-methyl-7-(oxazol-2-yl)-2-(1-(2,2,2-trifluoroethyl)pyrrolidin-3-yl)-[1,2,4]triazolo[1,5-c]pyrimidin-5-amine]
14 | 0.0263 µM | – | Cc1c(-c2ncco2)nc(N)n2nc([C@H]3C[C@@H](c4ccc(C(C)(C)N)cn4)C3)nc12 [Example 2.21, 2-((1,3-cis)-3-(5-(2-aminopropan-2-yl)pyridin-2-yl)cyclobutyl)-8-methyl-7-(oxazol-2-yl)-[1,2,4]triazolo[1,5-c]pyrimidin-5-amine]
15 | 0.012 µM | – | Nc1nc(-c2ccccc2)cc2nc([C@@H]3CC(F)(F)CN3)nn12 [Example 2.1, (S)-2-(4,4-difluoropyrrolidin-2-yl)-7-phenyl-[1,2,4]triazolo[1,5-c]pyrimidin-5-amine]
16 | 0.0099 µM | – | Cc1c(-c2ncco2)nc(N)n2nc([C@H]3C[C@H](c4ccc(C(C)(C)N)cn4)C3)nc12 [Example 2.20, 2-((1,3-trans)-3-(5-(2-aminopropan-2-yl)pyridin-2-yl)cyclobutyl)-8-methyl-7-(oxazol-2-yl)[l,2,4]triazolo[1,5-c]pyrimidin-5-amine]
17 | 0.0037 µM | – | Cc1c(-c2ncco2)nc(N)n2nc([C@H]3C[C@@H](c4ccc(C(C)(C)O)cn4)C3)nc12 [Example 2.18, 2-(6-((1,3-cis)-3-(5-amino-8-methyl-7-(oxazol-2-yl)-[1,2,4]triazolo[1,5-c]pyrimidin-2-yl)cyclobutyl)pyridin-3-yl)propan-2-ol]
18 | 0.0012 µM | 0.261 µM | Cc1c(-c2ncco2)nc(N)n2nc([C@@H]3CCCN(c4cnn(C(C)C(C)(C)O)c4)C3)nc12 (single isomer, unassigned) [Example 2.10, (R or S)-3-(4-((R)-3-(5-amino-8-methyl-7-(oxazol-2-yl)-[1,2,4]triazolo[1,5-c]pyrimidin-2-yl)piperidin-1-yl)-1H-pyrazol-1-yl)-2-methylbutan-2-ol]
